Experimental data published in patent US11066414B2, “Cot modulators and methods of use thereof” (Gilead Sciences, Inc., priority 2015, dated 2021).
Like-named read-outs stand apart in the source and are kept apart here.

Columns and labels:
[1] = molecular target: Human Cot (Homo sapiens (Human), UniProt P41279); experiment: High Throughput Cot Biochemical Assay; settings: Cot HTRF (TR-FRET) biochemical assay
[2] = test system: TNFα; experiment: Cot Monocyte TNFα Cell Based Assay
[3] = Homo sapiens, Monocyte, read-out: EC50 TNF, LPS-stimulated human monocytes, TNFα TR-FRET
[4] = read-out: EC50 TNF, LPS-stimulated human monocytes, TNFα TR-FRET

Human Cot, sequence (P41279 30-397): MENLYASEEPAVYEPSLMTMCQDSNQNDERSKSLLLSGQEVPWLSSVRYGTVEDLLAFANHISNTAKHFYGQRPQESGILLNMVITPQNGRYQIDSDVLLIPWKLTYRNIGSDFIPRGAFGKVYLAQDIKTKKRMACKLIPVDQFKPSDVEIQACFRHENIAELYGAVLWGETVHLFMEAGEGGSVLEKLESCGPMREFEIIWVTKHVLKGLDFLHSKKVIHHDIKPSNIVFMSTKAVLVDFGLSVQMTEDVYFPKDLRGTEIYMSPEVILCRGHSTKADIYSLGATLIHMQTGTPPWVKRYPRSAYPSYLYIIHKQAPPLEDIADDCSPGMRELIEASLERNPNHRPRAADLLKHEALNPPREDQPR

Row | IC50 ([1]; IC50 HTRF) [nM] | EC50 [2, 3] [nM] | Structure (SMILES) | further results
1 | 3 | – | CC(C)(C)CNc1c(C#N)cnc2c(C#N)cc(N[C@H](c3cn(C4(C(F)(F)F)CC4)nn3)c3cccc4ncsc34)cc12 [Example 66, (S)-6-((benzo[d]thiazol-7-yl(1-(1-(trifluoromethyl)cyclopropyl)-1H-1,2,3-triazol-4-yl)methyl)amino)-4-(neopentylamino)quinoline-3,8-dicarbonitrile] | –
2 | 1 | – | CC(C)(C)CNc1c(C#N)cnc2c(Cl)cc(N[C@H](c3cn(C4CC4)nn3)c3csc4c3CCN(C3COC3)C4)cc12 [Example 80, (S)-8-chloro-6-(((1-cyclopropyl-1H-1,2,3-triazol-4-yl)(6-(oxetan-3-yl)-4,5,6,7-tetrahydrothieno[2,3-c]pyridin-3-yl)methyl)amino)-4-(neopentylamino)-quinoline-3-carbonitrile] | –
3 | 2 | – | [2H]C(Nc1cc(Cl)c2ncc(C#N)c(NCC(C)(C)C)c2c1)(c1cn(C2CC2)nn1)c1ccc(F)nc1C (stereo not drawn) [Example 111, 8-chloro-6-(((1-cyclopropyl-1H-1,2,3-triazol-4-yl)(6-fluoro-2-methylpyridin-3-yl)methyl-d)amino)-4-(neopentylamino)quinoline-3-carbonitrile] | –
4 | 2 | – | [2H]C([2H])(Nc1c(C#N)cnc2c(Cl)cc(N[C@@]([2H])(c3ccc(F)nc3)c3cn(C4CC4)nn3)cc12)C(C)(C)C [Example 112, (S)-8-chloro-6-(((1-cyclopropyl-1H-1,2,3-triazol-4-yl)(6-fluoropyridin-3-yl)methyl-d)amino)-4-((2,2-dimethylpropyl-1,1-d2)amino)quinoline-3-carbonitrile] | –
5 | 4 | – | CCN1CCc2c([C@H](Nc3cc(Cl)c4ncc(C#N)c(Nc5ccc(F)c(Cl)c5)c4c3)c3c[nH]nn3)csc2C1 [Example 270, (S)-8-chloro-4-((3-chloro-4-fluoro-phenyl)amino)-6-(((6-ethyl-4,5,6,7-tetrahydrothieno[2,3-c]pyridin-3-yl)(1H-1,2,3-triazol-4-yl)methyl)-amino)quinoline-3-carbonitrile] | –
6 | 3 | – | Cc1ncccc1[C@H](Nc1cc(Cl)c2ncc(C#N)c(Nc3ccc(F)c(Cl)c3)c2c1)c1cn(C(C)C)nn1 [Example 282, (S)-8-chloro-4-((3-chloro-4-fluorophenyl)amino)-6-(((1-isopropyl-1H-1,2,3-triazol-4-yl)(2-methylpyridin-3-yl)methyl)amino)-quinoline-3-carboni trile] | –
7 | – | – | CC(C)(C)N1CCC(n2cc([C@@H](Nc3cc(Cl)c4ncc(C#N)c(NC5CCCCC5)c4c3)c3cccnc3)nn2)CC1 [Example 287, (S)-6-(((1-(1-(tert-butyl)piperidin-4-yl)-1H-1,2,3-triazol-4-yl)(pyridin-3-yl)methyl)amino)-8-chloro-4-(cyclohexylamino)quinoline-3-carbonitrile] | IC50 ([1]; read-out: IC50 HTRF): 20 nM
8 | – | – | CC(C)n1cc([C@@H](Nc2cc(Cl)c3ncc(C#N)c(Nc4ccc(F)c(Cl)c4)c3c2)c2cc(Br)cnc2Cl)nn1 [Example 293, (S)-6-(((5-brorno-2-chloropyridin-3-yl)(1-isopropyl-1H-1,2,3-triazol-4-yl)methyl)amino)-8-chloro-4-((3-chloro-4-fluorophenyl)-amino)quinoline-3-carbonitrile] | IC50 ([1]; read-out: IC50 HTRF): 32 nM
9 | 30 | – | CC(C)n1cc([C@@H](Nc2cc(Cl)c3ncc(C#N)c(Nc4ccc(F)c(Cl)c4)c3c2)c2cncn2C)nn1 [Example 311, (S)-8-chloro-4-((3-chloro-4-fluorophenyl)amino)-6-(((1-isopropyl-1H-1,2,3-triazol-4-yl)(1-methyl-1H-imidazol-5-yl)methyl)amino)quinoline-3-carbonitrile] | –
10 | 60 | – | N#Cc1cnc2c(Cl)cc(N[C@H](c3cn(C4COC4)nn3)c3cc(Br)cnc3Cl)cc2c1Nc1ccc(F)c(Cl)c1 [Example 320, (S)-6-(((5-bromo-2-chloropyridin-3-yl)(1-(oxetan-3-yl)-1H-1,2,3-triazol-4-yl)methyl)amino)-8-chloro-4-((3-chloro-4-fluorophenyl)amino)quinoline-3-carbonitrile] | –
11 | – | 417 | Cn1cccc([C@H](Nc2cc(C#N)c3ncc(C#N)c(NCC(C)(C)C)c3c2)c2cn(C3(C(F)(F)F)CC3)nn2)c1=O [Example 844, (S)-6-(((1-methyl-2-oxo-1,2-dihydropyridin-3-yl)(1-(1-(trifluoromethyl)cyclopropyl)-1H-1,2,3-triazol-4-yl)methyl)amino)-4-(neopentylamino)quinoline-3,8-dicarbonitrile] | –
12 | – | 49 | Cc1nc(F)ccc1[C@H](Nc1cc(C#N)c2ncc(C#N)c(NCC(C)(C)C(F)(F)F)c2c1)c1nnn(C2(C3CC3)CC2)c1F [Example 862, (S)-6-(((1-([1,1′-bi(cyclopropan)]-1-yl)-5-fluoro-1H-1,2,3-triazol-4-yl)(6-fluoro-2-methylpyridin-3-yl)methyl)amino)-4-((3,3,3-trifluoro-2,2-dimethylpropyl)amino)quinoline-3,8-dicarbonitrile] | –
13 | – | 41 | CC1(n2cc([C@@H](Nc3cc(C#N)c4ncc(C#N)c(NCC(C)(C)C(F)(F)F)c4c3)c3cccc4ncccc34)nn2)CC1 [Example 895, (S)-6-(((1-(1-methylcyclopropyl)-1H-1,2,3-triazol-4-yl)(quinolin-5-yl)methyl)amino)-4-((3,3,3-trifluoro-2,2-dimethylpropyl)amino)quinoline-3,8-dicarbonitrile] | –
14 | – | 36 | Cc1ncsc1[C@H](Nc1cc(C#N)c2ncc(C#N)c(NCC(C)(C)C)c2c1)c1cn(C2(C3CC3)CC2)nn1 [Example 903, (R)-6-(((1-([1,1′-bi(cyclopropan)]-1-yl)-1H-1,2,3-triazol-4-yl)(4-methylthiazol-5-yl)methyl)amino)-4-(neopentylamino)quinoline-3,8-dicarbonitrile] | –
15 | – | 212 | COc1ccc([C@H](Nc2cc(C#N)c3ncc(C#N)c(NCC(C)(C)C)c3c2)c2cn(C3(C(F)(F)F)CC3)nn2)cn1 [Example 905, (S)-6-(((6-methoxypyridin-3-yl)(1-(1-(trifluoromethyl)cyclopropyl)-1H-1,2,3-triazol-4-yl)methyl)amino)-4-(neopentylamino)quinoline-3,8-dicarbonitrile] | –
16 | – | 238 | COc1c(C(Nc2cc(C#N)c3ncc(C#N)c(NCC(C)(C)C)c3c2)c2ccc(F)nc2C)nnn1C (stereo not drawn) [Example 908, 6-(((6-fluoro-2-methylpyridin-3-yl)(5-methoxy-1-methyl-1H-1,2,3-triazol-4-yl)methyl)amino)-4-(neopentyl-amino)quinoline-3,8-dicarbonitrile] | –
17 | – | 269 | CC(C)(C)CNc1c(C#N)cnc2c(Cl)cc(N[C@H](c3cn(C4(C(F)(F)F)CC4)nn3)c3cccc4c(Cl)nccc34)cc12 [Example 916, (S)-8-chloro-6-(((1-chloroisoquinolin-5-yl)(1-(1-(trifluoromethyl)cyclopropyl)-1H-1,2,3-triazol-4-yl)methyl)amino)-4-(neopentylamino)quinoline-3-carbonitrile] | –
18 | – | – | COc1nccc2c([C@H](Nc3cc(Cl)c4ncc(C#N)c(NCC(C)(C)C(F)(F)F)c4c3)c3cn(C45CC(C4)C5)nn3)cccc12 [Example 928, (S)-6-(((1-(bicyclo[1.1.1]pentan-1-yl)-1H-1,2,3-triazol-4-yl)(1-methoxylsoquinolin-5-yl)methyl)amino)-8-chloro-4-((3,3,3-trifluoro-2,2-dimethylpropyl)amino)quinoline-3-carbonitrile] | EC50 [2, 4]: 99 nM
19 | – | – | COc1nccc2c([C@H](Nc3cc(Cl)c4ncc(C#N)c(NCC(C)(C)C)c4c3)c3cn([C@@H](C)CF)nn3)cccc12 [Example 932, 8-chloro-6-(((S)-(1-((S)-1-fluoropropan-2-yl)-1H-1,2,3-triazol-4-yl)(1-methoxylsoquinolin-5-yl)methyl)amino)-4-(neopentylamino)quinoline-3-carbonitrile] | EC50 [2, 4]: 205 nM
20 | – | – | Cn1ccc2c([C@H](Nc3cc(Cl)c4ncc(C#N)c(NCC(C)(C)C)c4c3)c3nnn(C45CC(C4)C5)c3F)cccc2c1=O [Example 961, (S)-6-(((1-(bicyclo[111]pentan-1-yl)-5-fluoro-1H-1,2,3-triazol-4-yl)(2-methyl-1-oxo-1,2-dihydroisoquinolin-5-yl)methyl)amino)-8-chloro-4-(neopentylamino)quinoline-3-carbonitrile] | EC50 [2, 4]: 48 nM
21 | – | 135 | CC(C)(C)CNc1c(C#N)cnc2c(Cl)cc(N[C@H](c3nnn(C4(C(F)F)CC4)c3F)c3cccc4ncccc34)cc12 [Example 962, (S)-8-chloro-6-(((1-(1-(difluoromethyl)cyclopropyl)-5-fluoro-1H-1,2,3-triazol-4-yl)(quinolin-5-yl)methyl)amino)-4-(neopentylamino)quinoline-3-carbonitrile] | –
22 | – | 191 | COc1ccc([C@H](Nc2cc(Cl)c3ncc(C#N)c(NCC(C)(C)C)c3c2)c2nnn(C3(C(F)F)CC3)c2OC)c(C)n1 [Example 966, (S)-8-chloro-6-(((1-(1-(difluoromethyl)cyclopropyl)-5-methoxy-1H-1,2,3-triazol-4-yl)(6-methoxy-2-methylpyridin-3-yl)methyl)amino)-4-(neopentylamino)quinoline-3-carbonitrile] | –
23 | – | 722 | COc1ccc(C(Nc2cc(Cl)c3ncc(C#N)c(NCC(C)(C)C)c3c2)c2nnn(C)c2OC)c(C)n1 (stereo not drawn) [Example 970, 8-chloro-6-(((5-methoxy-1-methyl-1H-1,2,3-triazol-4-yl)(6-methoxy-2-methylpyridin-3-yl)methyl)amino)-4-(neopentylamino)quinoline-3-carbonitrile] | –
24 | – | – | Cc1nc(F)ccc1[C@H](Nc1cc(Cl)c2ncc(C#N)c(NCC(C)(C)C)c2c1)c1nnn2c1OCCC2 [Example 985, (S)-8-chloro-6-(((6,7-dihydro-5H-[1,2,3]triazolo[5,l-b][1,3]oxazin-3-yl)(6-fluoro-2-methylpyridin-3-yl)methyl)amino)-4-(neopentylamino)quinoline-3-carbonitrile] | EC50 [2, 4]: 126 nM
